# According to article PMC12589998, “Development and validation of a UHPLC-QqQ-MS/MS method for simultaneous determination of fifteen major components from Oroxyli seed extract in rat plasma and its application in the pharmacokinetic study” (Frontiers in Pharmacology, 2025):
# Entries after “also recorded” stand apart in the source; their conditions may differ. Read-outs that look alike come from different tables or passages of the source.
# What was measured:
# [1] = Pharmacokinetic study in rats after oral administration of OS extract (UHPLC-QqQ-MS/MS of plasma); format: in vivo, rat; conditions: for concentration at 0.5 h / AUC(0-t) / AUC(0-inf) / Cmax / half-life / Tmax: male; for concentration at 0.5 h: SD; for AUC(0-t) / AUC(0-inf) / Cmax / half-life / Tmax: rat plasma, oral 3 g/kg OS extract, n = 6, mean ± SD; for AUC(0-t): read-out: AUC(0-t); for AUC(0-inf): read-out: AUC(0-∞); for Cmax: read-out: Cmax; for half-life: read-out: T1/2 (converted); for Tmax: read-out: Tmax
# Protocol: The UHPLC-QqQ-MS/MS system consisted of a 1290 UHPLC and a 6470 mass spectrometer (Agilent Technologies). Chromatographic separation was realized on utilizing an ACQUITY UPLC BEH C18 column (2.1 × 100 mm, 1.7 μm) maintained at 35 °C. The mobile phase consisting of 0.1% formic acid in water (A) and acetonitrile (B) was utilized with the elution program set at 0 min–1 min, 5% B–30% B; 1 min–4 min, 30% B– 50% B; 4 min–8 min, and 50% B–90% B. The injection volume was 5 μL, and the flow rate was 0.3 mL/min. The mass spectrometry parameters in the negative ion mode, gas temperature, flow rate, and nebulizer pressure were 300 °C, 7 L/min, and 35 psi, respectively. The mass spectra properties of the 15 analytes and the IS are illustrated in Table 1.
# To 100 μL of the plasma sample, 20 μL of methanol, 20 μL of IS solution (methylparaben, 1 μg/mL), and 5 μL of formic acid were added and vortexed for a duration of 2 min. Subsequently, the mixture underwent extraction with 800 μL of acetonitrile for 3 min. Following 10 min of centrifugation at 12,000 g, the supernatant was collected and evaporated to dryness under N2 to obtain the residue. Finally, the residue was reconstituted in 50% methanol (100 μL) and utilized for analysis.
# Before initiating the study, six male SD rats underwent a 12-h fasting period, during which they were granted unrestricted access to water. Then, the rats were administered an oral dose of 3 g/kg of the OS extract, which had been dissolved in 0.5% CMC-Na aqueous solution. Blood samples, approximately 200 μL each, were collected at various time points: before administration and at 0.03, 0.08, 0.17, 0.25, 0.5, 0.75, 1, 2, 4, 6, 8, 10, 12, 24, 36, and 48 h post-administration. Following 10 min of centrifugation at 6,000 g, the resultant samples were stored at −80 °C.
# The developed method was effectively applied to study the pharmacokinetics in rats following oral administration of the OS extract. […] This was likely due to their low concentrations in the OS extract. Ultimately, nine components (chrysin, chrysin-7-O-β-D-glucuronide, baicalin, baicalein, oroxin A, oroxin B, oroxylin A, oroxylin A-7-O-β-D-glucuronide, and scutellarein) were successfully fitted with pharmacokinetic parameters. The average plasma concentration–time profiles of these substances are depicted in Figure 3. […] All data were presented as the mean ± standard deviation (Mean ± SD).
# [2] = Stability of the analytes in rat plasma samples under storage conditions; format: physicochemical; conditions: n = 6
# Protocol: The bioanalytical method validation was evaluated for specificity, linearity, sensitivity, precision and accuracy, recovery, matrix effect, and stability to ensure compliance with the U.S. Food and Drug Administration (FDA) guidance on precise quantitative analysis ([Center for Drug Evaluation and Research of the U.S., 2018]). The assessment of specificity was conducted by comparing the chromatograms obtained from blank plasma, blank plasma spiked with the target components, and samples gathered following the oral administration of OS extract. Calibration curves were constructed by plotting the ratio for the peak area of the analyte to IS versus the concentration, with 1/x^2 serving as the weighting factor. The lower limit of quantification (LLOQ) was defined as the concentration at which a signal to noise ratio of […] 10 was achievable. The evaluation of precision and accuracy involved the analysis of six QC samples, both within a single day and over 3 consecutive days. Accuracy was expressed as the relative error (RE), whereas precision was gauged via relative standard deviation (RSD). Extraction recovery was ascertained by juxtaposing the responses of analytes in extracted samples against those in samples that were spiked post-extraction. The matrix effect was scrutinized by determining the ratio of the responses of the analytes in post-extraction spiked samples to those in the mixed standard solution. The stability of the analytes in plasma samples was explored under diverse conditions: encompassing a 12-h period in an autosampler, a 4-h interval at room temperature, three cycles of freezing–thawing, and a 7-day duration at −80 °C.
# The retention times of the analyte peaks were consistent with those in the spiked samples. […] The LLOQs for chrysin, chrysin-7-O-β-D-glucuronide, hispidulin, wogonoside, quercetin, quercetin-7-O-β-D-glucoside, baicalin, baicalein, acacetin, oroxin A, oroxin B, oroxylin A, oroxylin A-7-O-β-D-glucuronide, apigenin, and scutellarein were 1.0, 2.0, 1.0, 0.3, 1.0, 0.1, 9.0, 6.0, 0.3, 6.0, 4.0, 1.0, 2.0, 0.5, and 0.3 ng/mL, respectively. In Supplementary Table S2, the RE for accuracy is between −13.77% and 12.55%, and the RSD for precision is below 14.55% (both intra- and inter-day). […] The matrix effect varied from 60.15% to 115.53%, with RSD values below 10.54%. In Supplementary Table S4, the RSD values for stability of the analytes are found to be lower than 13.98%, meaning that these components were stable under the following conditions: encompassing a 12-h period in an autosampler, a 4-h interval at room temperature, three cycles of freezing and thawing, and a 7-day duration at −80 °C.
# [3] = 3 g/kg, rat plasma collected 0.5 h after oral administration of the OS extract, read-out: Concentration printed in MRM chromatogram of plasma sample (Figure 2C)
# [4] = rat plasma after oral OS extract
# [5] = spiked concentration 1600 ng/mL
# [6] = spiked concentration 6400 ng/mL
SMILES,"concentration at 0.5 h [1, 3] [ng/mL]",AUC(0-t) [1] [ng·h/mL],AUC(0-inf) [1] [ng·h/mL],Cmax [1] [ng/mL],half-life [1] [h],Tmax [1] [h],"Measured, -80°C for 7 days ([2]; spiked concentration 40 ng/mL) [ng/mL]","Measured, Autosampler for 12 h ([2]; spiked concentration 40 ng/mL) [ng/mL]","Measured, Room temperature for 4 h ([2]; spiked concentration 40 ng/mL) [ng/mL]","Measured, Three freeze-thaw cycles ([2]; spiked concentration 40 ng/mL) [ng/mL]","Measured, -80°C for 7 days ([2]; spiked concentration 400 ng/mL) [ng/mL]","Measured, Autosampler for 12 h ([2]; spiked concentration 400 ng/mL) [ng/mL]","Measured, Room temperature for 4 h ([2]; spiked concentration 400 ng/mL) [ng/mL]","Measured, Three freeze-thaw cycles ([2]; spiked concentration 400 ng/mL) [ng/mL]","Measured, -80°C for 7 days [2, 6] [ng/mL]","Measured, Autosampler for 12 h [2, 6] [ng/mL]","Measured, Room temperature for 4 h [2, 6] [ng/mL]","Measured, Three freeze-thaw cycles [2, 6] [ng/mL]","Measured, -80°C for 7 days ([2]; spiked concentration 2 ng/mL) [ng/mL]","Measured, Autosampler for 12 h ([2]; spiked concentration 2 ng/mL) [ng/mL]",other results
"COc1c(O[C@@H]2O[C@H](C(=O)O)[C@@H](O)[C@H](O)[C@H]2O)cc2oc(-c3ccccc3)cc(=O)c2c1O [Oroxylin A-7-O-β-D-glucuronide, oroxylin A-7-O-β-D-glucuronide]",61,11400,11600,912 ± 350,7.22 ± 1.04,9.6 ± 1.67,–,–,–,–,–,–,–,–,–,–,–,–,–,–,"Shape of plasma concentration-time curve [1, 4]: significant bimodal phenomena; also recorded: clear bimodal phenomena; Measured, -80°C for 7 days ([2]; spiked concentration 10 ng/mL): 9.25 ± 0.47 ng/mL; Measured, Autosampler for 12 h ([2]; spiked concentration 10 ng/mL): 9.44 ± 1.32 ng/mL; Measured, Room temperature for 4 h ([2]; spiked concentration 10 ng/mL): 11.03 ± 0.43 ng/mL; Measured, Three freeze-thaw cycles ([2]; spiked concentration 10 ng/mL): 9.21 ± 0.83 ng/mL; Measured, -80°C for 7 days ([2]; spiked concentration 100 ng/mL): 95.03 ± 7.93 ng/mL; Measured, Autosampler for 12 h ([2]; spiked concentration 100 ng/mL): 98.52 ± 5.58 ng/mL; Measured, Room temperature for 4 h ([2]; spiked concentration 100 ng/mL): 108.86 ± 4.87 ng/mL; Measured, Three freeze-thaw cycles ([2]; spiked concentration 100 ng/mL): 90.02 ± 5.94 ng/mL; Measured, -80°C for 7 days [2, 5]: 1626.95 ± 164.45 ng/mL; Measured, Autosampler for 12 h [2, 5]: 1793.11 ± 46.98 ng/mL; Measured, Room temperature for 4 h [2, 5]: 1799.31 ± 27.98 ng/mL; Measured, Three freeze-thaw cycles [2, 5]: 1550.12 ± 77.94 ng/mL"
"O=c1cc(-c2ccc(O)cc2)oc2cc(O)cc(O)c12 [Apigenin, apigenin]",–,–,–,–,–,–,–,–,–,–,–,–,–,–,–,–,–,–,1.93 ± 0.09,2.00 ± 0.16,"concentration at 0.5 h ([1]; rat, in vivo, po): 45 ng/mL; Plasma levels ([1]; rat, in vivo, po): too weak to obtain comprehensive pharmacokinetic curves; Measured, Room temperature for 4 h ([2]; spiked concentration 2 ng/mL): 2.23 ± 0.11 ng/mL; Measured, Three freeze-thaw cycles ([2]; spiked concentration 2 ng/mL): 2.07 ± 0.13 ng/mL; Measured, -80°C for 7 days ([2]; spiked concentration 20 ng/mL): 20.16 ± 2.35 ng/mL; Measured, Autosampler for 12 h ([2]; spiked concentration 20 ng/mL): 20.39 ± 1.55 ng/mL; Measured, Room temperature for 4 h ([2]; spiked concentration 20 ng/mL): 18.37 ± 0.87 ng/mL; Measured, Three freeze-thaw cycles ([2]; spiked concentration 20 ng/mL): 18.24 ± 1.16 ng/mL; Measured, -80°C for 7 days ([2]; spiked concentration 320 ng/mL): 288.58 ± 21.30 ng/mL; Measured, Autosampler for 12 h ([2]; spiked concentration 320 ng/mL): 316.15 ± 18.09 ng/mL; Measured, Room temperature for 4 h ([2]; spiked concentration 320 ng/mL): 310.13 ± 19.51 ng/mL; Measured, Three freeze-thaw cycles ([2]; spiked concentration 320 ng/mL): 306.45 ± 18.15 ng/mL"
"O=c1cc(-c2ccccc2)oc2cc(O[C@@H]3O[C@H](CO[C@@H]4O[C@H](CO)[C@@H](O)[C@H](O)[C@H]4O)[C@@H](O)[C@H](O)[C@H]3O)c(O)c(O)c12 [Oroxin B, oroxin B]",1130,2120,2230,1990,3.97 ± 1.37,0.22 ± 0.04,37.76 ± 3.31,39.10 ± 2.32,41.95 ± 3.13,38.40 ± 1.50,393.06 ± 24.72,436.20 ± 27.56,430.23 ± 11.61,392.81 ± 19.18,5937.71 ± 352.01,6506.73 ± 286.20,6564.94 ± 412.78,6068.65 ± 216.91,–,–,–

# Continued, in another order:
"concentration at 0.5 h [1, 3] [ng/mL]",AUC(0-t) [1] [ng·h/mL],AUC(0-inf) [1] [ng·h/mL],Cmax [1] [ng/mL],half-life [1] [h],Tmax [1] [h],"Measured, -80°C for 7 days ([2]; spiked concentration 40 ng/mL) [ng/mL]","Measured, Autosampler for 12 h ([2]; spiked concentration 40 ng/mL) [ng/mL]","Measured, Room temperature for 4 h ([2]; spiked concentration 40 ng/mL) [ng/mL]","Measured, Three freeze-thaw cycles ([2]; spiked concentration 40 ng/mL) [ng/mL]","Measured, -80°C for 7 days ([2]; spiked concentration 400 ng/mL) [ng/mL]","Measured, Autosampler for 12 h ([2]; spiked concentration 400 ng/mL) [ng/mL]","Measured, Room temperature for 4 h ([2]; spiked concentration 400 ng/mL) [ng/mL]","Measured, Three freeze-thaw cycles ([2]; spiked concentration 400 ng/mL) [ng/mL]","Measured, -80°C for 7 days [2, 6] [ng/mL]","Measured, Autosampler for 12 h [2, 6] [ng/mL]","Measured, Room temperature for 4 h [2, 6] [ng/mL]","Measured, Three freeze-thaw cycles [2, 6] [ng/mL]","Measured, -80°C for 7 days ([2]; spiked concentration 2 ng/mL) [ng/mL]","Measured, Autosampler for 12 h ([2]; spiked concentration 2 ng/mL) [ng/mL]",SMILES,other results
879,43500,44900,3320,4.79 ± 2.28,10 ± 2,37.32 ± 1.14,39.57 ± 2.48,39.19 ± 3.16,43.49 ± 1.13,409.88 ± 38.24,419.16 ± 29.59,419.25 ± 24.55,402.45 ± 17.08,6210.06 ± 535.52,5954.05 ± 243.71,6145.55 ± 285.25,6316.77 ± 188.36,–,–,"O=C(O)[C@H]1O[C@@H](Oc2cc(O)c3c(=O)cc(-c4ccccc4)oc3c2)[C@H](O)[C@@H](O)[C@@H]1O [Chrysin-7-O-β-D-glucuronide, chrysin-7-O-β-D-glucuronide]",–
26,–,–,–,–,~10,–,–,–,–,–,–,–,–,–,–,–,–,1.81 ± 0.12,1.90 ± 0.21,"O=c1c(O)c(-c2ccc(O)c(O)c2)oc2cc(O)cc(O)c12 [Quercetin, quercetin]","Plasma levels [1, 4]: too weak to obtain comprehensive pharmacokinetic curves; Measured, Room temperature for 4 h ([2]; spiked concentration 2 ng/mL): 1.80 ± 0.22 ng/mL; Measured, Three freeze-thaw cycles ([2]; spiked concentration 2 ng/mL): 1.80 ± 0.09 ng/mL; Measured, -80°C for 7 days ([2]; spiked concentration 20 ng/mL): 17.37 ± 0.79 ng/mL; Measured, Autosampler for 12 h ([2]; spiked concentration 20 ng/mL): 17.83 ± 1.42 ng/mL; Measured, Room temperature for 4 h ([2]; spiked concentration 20 ng/mL): 19.06 ± 1.54 ng/mL; Measured, Three freeze-thaw cycles ([2]; spiked concentration 20 ng/mL): 20.46 ± 0.77 ng/mL; Measured, -80°C for 7 days ([2]; spiked concentration 320 ng/mL): 285.05 ± 20.53 ng/mL; Measured, Autosampler for 12 h ([2]; spiked concentration 320 ng/mL): 325.17 ± 28.70 ng/mL; Measured, Room temperature for 4 h ([2]; spiked concentration 320 ng/mL): 298.43 ± 22.04 ng/mL; Measured, Three freeze-thaw cycles ([2]; spiked concentration 320 ng/mL): 288.07 ± 26.80 ng/mL"
